From patent US8519149B2, “Tricyclic compounds as mPGES-1 inhibitors” (Glenmark Pharmaceuticals S.A., priority 2010, dated 2013)

Target: T1, Recombinant human mPGES-1 (Homo sapiens, UniProt O14684)
T1 sequence (O14684 1-152): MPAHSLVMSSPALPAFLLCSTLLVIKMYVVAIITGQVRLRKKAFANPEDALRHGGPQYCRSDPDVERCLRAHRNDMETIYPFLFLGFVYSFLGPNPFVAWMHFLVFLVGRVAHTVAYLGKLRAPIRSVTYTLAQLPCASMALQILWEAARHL
Assay: In-vitro mPGES-1 enzyme inhibition assay (PGE2 formation from PGH2, HTRF detection)
Assay type: biochemical
Conditions: for inhibition at 1 µM: read-out: Percentage inhibition at 1 μM; for inhibition at 10 µM: 10 μM test compound, read-out: Percentage inhibition at 10 μM; for IC50: class symbols, selected examples
Source text: In-Vitro Protocol for Screening of mPGES-1 Inhibitors: mPGES-1 (microsomal prostaglandin E synthase-1) is a microsomal enzyme that converts endoperoxide substrate PGH2 (prostaglandin H2) to product PGE2 (prostaglandin E2) by isomerization in the presence of reduced glutathione (GSH). mPGES-1 inhibitors were screened by assessing their ability to inhibit formation of PGE2 from PGH2 in presence of mPGES-1 using anti-PGE2 antibody based detection method. […] Assay was set up using crude microsomal fractions at protein concentration of 40-60 μg/mL. […] Final concentration of DMSO in reaction was 0.5% (v/v). Negative controls comprised of all assay reagents except the enzyme. Positive controls comprised of enzyme reaction in the absence of any inhibitor. […] Reaction was stopped by addition of Stannous chloride (11 mg/ml) and PGE2 levels were measured ([…] et al. […] Inhibition of mPGES-1 enzyme activity was measured using percent of reaction occurring in the positive control. Concentration response curves were plotted using percent inhibition of maximum enzyme reaction. IC50 value was calculated from concentration response curve by nonlinear regression analysis using GraphPad PRISM software.

[1] = 1 μM test compound, recombinant human mPGES-1 microsomal fraction
[2] = recombinant human mPGES-1 microsomal fraction

Row | Compound | inhibition at 1 µM [1] | inhibition at 10 µM [2] | IC50 | Percentage inhibition at 1 μM (1 μM test compound, recombinant human mPGES-1 microsomal fraction, 1 µM)
1 | CC1(C)Cc2c(c(C(=O)Nc3ccc(C(F)(F)F)cc3)cc3nc(Nc4c(Cl)cncc4Cl)[nH]c23)O1 [Example-10, 2-[(3,5-Dichloropyridin-4-yl)amino]-7,7-dimethyl-N-[4-(trifluoromethyl)phenyl]-7,8-dihydro-1H-furo[3,2-e]benzimidazole-5-carboxamide] | 83.4% | 91.8% |  | 
2 | Cc1cc2c(o1)c(C(=O)NC1CCCCC1)cc1nc(Nc3c(Cl)cccc3Cl)[nH]c12 [Example-13, N-Cyclohexyl-2-[(2,6-dichlorophenyl)amino]-7-methyl-1H-furo[3,2-e]benzimidazole-5-carboxamide] | 94.2% | 97.5% |  | 
3 | CC1(C)CCCC(NC(=O)c2cc3nc(Nc4c(Cl)cncc4Cl)[nH]c3c3c2OC(C)(C)C3)C1 (stereo not shown) [Example-14, 2-[(3,5-Dichloropyridin-4-yl)amino]-N-(3,3-dimethylcyclohexyl)-7,7-dimethyl-7,8-dihydro-1H-furo[3,2-e]benzimidazole-5-carboxamide] | 100% | 100% | < 50 nM | 
4 | CC1(C)Cc2c(c(C(=O)Nc3ccc(Cl)cc3)cc3nc(Nc4c(Cl)cncc4Cl)[nH]c23)O1 [Example-15, N-(4-Chlorophenyl)-2-[(3,5-dichloropyridin-4-yl)amino]-7,7-dimethyl-7,8-dihydro-1H-furo[3,2-e]benzimidazole-5-carboxamide] | 97.5% | 95.5% | < 50 nM | 
5 | Cc1cc2c(o1)c(C(=O)NC1CCCCC1)cc1nc(Nc3ccccc3Cl)[nH]c12 [Example-16, 2-[(2-Chlorophenyl)amino]-N-cyclohexyl-7-methyl-1H-furo[3,2-e]benzimidazole-5-carboxamide] | 73.5% | 94.9% |  | 
6 | CC1CC2CC(C1NC(=O)c1cc3nc(Nc4c(Cl)cncc4Cl)[nH]c3c3c1OC(C)(C)C3)C2(C)C (stereo not shown) [Example-17, 2-[(3,5-Dichloropyridin-4-yl)amino]-7,7-dimethyl-N-(3,6,6-trimethylbicyclo[3.1.1]hept-2-yl)-7,8-dihydro-1H-furo[3,2-e]benzimidazole-5-carboxamide] | 98% | 96.1% | < 50 nM | 
7 | CC1(C)Cc2c(c(C(=O)Nc3ccc(Cl)cc3)cc3nc(Nc4ccccc4Cl)[nH]c23)O1 [Example-18, N-(4-Chlorophenyl)-2-[(2-chlorophenyl)amino]-7,7-dimethyl-7,8-dihydro-1H-furo[3,2-e]benzimidazole-5-carboxamide] | 98.4% | 99.8% | < 50 nM | 
8 | CC1(C)Cc2c(c(C(=O)NC34CC5CC(CC(C5)C3)C4)cc3nc(Nc4c(Cl)cncc4Cl)[nH]c23)O1 [Example-19, N-Adamantan-1-yl-2-[(3,5-dichloropyridin-4-yl)amino]-7,7-dimethyl-7,8-dihydro-1H-furo[3,2-e]benzimidazole-5-carboxamide] | 97.8% | 98.3% | < 50 nM | 
9 | CC1(C)Cc2c(c(C(=O)N3CCOCC3)cc3nc(Nc4c(Cl)cncc4Cl)[nH]c23)O1 [Example-20, {2-[(3,5-Dichloropyridin-4-yl)amino]-7,7-dimethyl-7,8-dihydro-1H-furo[3,2-e]benzimidazol-5-yl}(morpholin-4-yl)methanone] | 10.5% | 44.9% |  | 
10 | CC1(C)Cc2c(c(C(=O)NCC3CC3)cc3nc(Nc4c(Cl)cncc4Cl)[nH]c23)O1 [Example-21, N-(Cyclopropylmethyl)-2-[(3,5-dichloropyridin-4-yl)amino]-7,7-dimethyl-7,8-dihydro-1H-furo[3,2-e]benzimidazole-5-carboxamide] | 96.8% | 99.8% |  | 
11 | Cc1cc2c(o1)c(C(=O)NCc1ccc(F)cc1)cc1nc(Nc3c(Cl)cncc3Cl)[nH]c12 [Example-22, 2-[(3,5-Dichloropyridin-4-yl)amino]-N-(4-fluorobenzyl)-7-methyl-1H-furo[3,2-e]benzimidazole-5-carboxamide] | 85.8% | 98.8% |  | 
12 | Cc1cc2c(o1)c(C(=O)NC(C)C(C)(C)C)cc1nc(Nc3c(Cl)cncc3Cl)[nH]c12 (stereo not shown) [Example-23, 2-[(3,5-Dichloropyridin-4-yl)amino]-N-(3,3-dimethylbutan-2-yl)-7-methyl-1H-furo[3,2-e]benzimidazole-5-carboxamide] | 94% | 97.1% | < 50 nM | 
13 | CC1(C)Cc2c(c(C(=O)Nc3ccc(F)cc3)cc3nc(Nc4c(Cl)cncc4Cl)[nH]c23)O1 [Example-24, 2-[(3,5-Dichloropyridin-4-yl)amino]-N-(4-fluorophenyl)-7,7-dimethyl-7,8-dihydro-1H-furo[3,2-e]benzimidazole-5-carboxamide] | 95.3% | 95% | < 50 nM | 
14 | CC(C)(C)CC(C)(C)NC(=O)c1cc2nc(Nc3c(Cl)cncc3Cl)[nH]c2c2c1OC(C)(C)C2 [Example-25, 2-[(3,5-Dichloropyridin-4-yl)amino]-7,7-dimethyl-N-(2,4,4-trimethylpentan-2-yl)-7,8-dihydro-1H-furo[3,2-e]benzimidazole-5-carboxamide] | 92% | 98.2% | < 50 nM | 
15 | CC1(C)Cc2c(c(C(=O)NCc3ccc(F)cc3)cc3nc(Nc4c(Cl)cncc4Cl)[nH]c23)O1 [Example-26, 2-[(3,5-Dichloropyridin-4-yl)amino]-N-(4-fluorobenzyl)-7,7-dimethyl-7,8-dihydro-1H-furo[3,2-e]benzimidazole-5-carboxamide] | 90.2% | 97.8% | < 50 nM | 

Further lines, results first:

Row | inhibition at 1 µM [1] | inhibition at 10 µM [2] | IC50 | Percentage inhibition at 1 μM (1 μM test compound, recombinant human mPGES-1 microsomal fraction, 1 µM) | Compound
16 | 97% | 99.6% | < 50 nM |  | CC1(C)Cc2c(c(C(=O)NCc3ccccc3C(F)(F)F)cc3nc(Nc4c(Cl)cncc4Cl)[nH]c23)O1 [Example-2, 2-[(3,5-Dichloropyridin-4-yl)amino]-7,7-dimethyl-N-[2-(trifluoromethyl)benzyl]-7,8-dihydro-1H-furo[3,2-e]benzimidazole-5-carboxamide]
17 | 99.1% | 99.5% | < 50 nM |  | CCCCCCNC(=O)c1cc2nc(Nc3c(Cl)cncc3Cl)[nH]c2c2c1OC(C)(C)C2 [Example-3, 2-[(3,5-Dichloropyridin-4-yl)amino]-N-hexyl-7,7-dimethyl-7,8-dihydro-1H-furo[3,2-e]benzimidazole-5-carboxamide]
18 | 94.4% | 95% | < 50 nM |  | CCCCCNC(=O)c1cc2nc(Nc3c(Cl)cncc3Cl)[nH]c2c2c1OC(C)(C)C2 [Example-4, 2-[(3,5-Dichloropyridin-4-yl)amino]-7,7-dimethyl-N-pentyl-7,8-dihydro-1H-furo[3,2-e]benzimidazole-5-carboxamide]
19 | 97.7% | 97.8% | < 50 nM |  | CC(NC(=O)c1cc2nc(Nc3c(Cl)cncc3Cl)[nH]c2c2c1OC(C)(C)C2)C1CCCCC1 (stereo not shown) [Example-5, N-(1-Cyclohexylethyl)-2-[(3,5-dichloropyridin-4-yl)amino]-7,7-dimethyl-7,8-dihydro-1H-furo[3,2-e]benzimidazole-5-carboxamide]
20 | 93.4% | 95.5% | < 50 nM |  | C[C@@H](NC(=O)c1cc2nc(Nc3c(Cl)cncc3Cl)[nH]c2c2c1OC(C)(C)C2)C(C)(C)C [Example-6]
21 | 100% | 96.2% | < 50 nM |  | CC1(C)Cc2c(c(C(=O)NC3CCCCC3)cc3nc(Nc4c(Cl)cccc4Cl)[nH]c23)O1 [Example-7, N-Cyclohexyl-2-[(2,6-dichlorophenyl)amino]-7,7-dimethyl-7,8-dihydro-1H-furo[3,2-e]benzimidazole-5-carboxamide]
22 | 92.6% | 90.1% | < 50 nM |  | CC1(C)Cc2c(c(C(=O)Nc3ccc(Br)cc3)cc3nc(Nc4c(Cl)cncc4Cl)[nH]c23)O1 [Example-8, N-(4-Bromophenyl)-2-[(3,5-dichloropyridin-4-yl)amino]-7,7-dimethyl-7,8-dihydro-1H-furo[3,2-e]benzimidazole-5-carboxamide]
23 | 83% | 83.1% | < 50 nM |  | CCCCCNC(=O)c1cc2nc(Nc3c(Cl)cccc3Cl)[nH]c2c2c1OC(C)(C)C2 [Example-9, 2-[(2,6-Dichlorophenyl)amino]-7,7-dimethyl-N-pentyl-7,8-dihydro-1H-furo[3,2-e]benzimidazole-5-carboxamide]
24 | 100% | 100% | < 50 nM | 97.45% | CC1(C)Cc2c(c(C(=O)Nc3ccc(Br)cc3)cc3nc(Nc4c(Cl)cccc4Cl)[nH]c23)O1 [Example-11, N-(4-Bromophenyl)-2-[(2,6-dichlorophenyl)amino]-7,7-dimethyl-7,8-dihydro-1H-furo[3,2-e]benzimidazole-5-carboxamide]
